Experimental data: patent US8329645B2, “Polymyxin derivatives and uses thereof” (priority 2008, dated 2012)
Where a SMILES comes first, the peptide text is derived from it. Bridges are numbered along the chain shown (N, C = ends). [ ]: non-standard residue; d: D form. The star is where a group is joined. Decanoyl = CCCCCCCCCC(=O)*; Octanoyl = CCCCCCCC(=O)*; Dab = NCC[C@H](N)C(=O)O

Key:
[1] = tested on: Pseudomonas aeruginosa; assay type: cell-based
Method: Polymyxin B sulfate (Sigma-Aldrich, St. Louis, Mo., USA) was used as a control. […] Fourteen (14) strains (the F-strains) were purchased from Mobidiag Ltd., Helsinki, Finland. Besides bacteria, the MIC was also determined for the yeast Candida albicans (ATCC 28366 from ATCC). The inocula were prepared by adjusting the bacterial suspensions to a density equivalent to OD546 nm˜0.3 (˜10^8 CFU/ml˜0.5 McFarland) the yeast suspension to a density equivalent to OD546 nm˜0.75 (˜2×10^7 CFU/ml)._The suspensions were diluted to 10^7 CFU/ml. The plates were inoculated by using a Denley Multipoint Inoculator, 1 μl per spot corresponding to approx. 10^4 CFU/spot. Plates were incubated for 16-20 hours at 35° C. […] Both agents had good activity also against other polymyxin-susceptible strains of Enterobacteriaceae. […] S. aureus and C. albicans were resistant to the NAB peptides.

[2] = tested on: E. coli IH3080; assay: Bactericidal activity in PBS (% survival); assay type: cell-based, Escherichia coli; conditions: solution age fresh
Method: For the measurement of the antibacterial activity of aqueous solutions of NAB 739 methanesulfonate sodium, three different solutions were made: 1) A solution (1 mg/ml) made in 0.9% NaCl immediately prior to the experiment, 2) a solution (1 mg/ml) made in 0.9% NaCl 24 h prior to the experiment and kept at 37° C., 3) a solution (1 mg/ml) made in 0.9% NaCl 48 h prior to the experiment and kept at 37° C. A freshly made solution of NAB 739 acetate served as the control compound.
The test bacterium was E. coli IH3080. It was grown in LB broth (LB broth Lennox, Difco, BD, Sparks, Md., U.S.A.) at 37 Celsius in a rotary shaker into early logarithmic growth phase, washed with PBS, and resuspended in PBS to approx. 10e9 cells/ml. PBS was inoculated with approx. 500 CFU (colony forming units) of bacteria per ml and pipetted in 0.2 ml aliquots into wells of a microtiter plate. The plates already contained increasing concentrations of NAB 739 methanesulfonate or the control compound in 0.020 ml of 0.9% NaCl. […] The plate was incubated overnight at 37° C. and the developed colonies were counted.

[3] = tested on: P. mirabilis ATCC29906; assay: Growth inhibition around wells on LB agar plates; assay type: cell-based, Proteus mirabilis
Method: (§1) From an overnight-grown culture of IH3080 on LB agar, a suspension of approx. 10^8 cells/ml was prepared in 0.9% NaCl. Aliquots of this suspension were then pipetted on the agar plates and the plates were gently shaken to spread the suspension evenly on the entire surface of the plate. Thereafter, the unabsorbed part of the suspension was removed by using a Pasteur pipette. After the surface had dried, small wells (diameter, 2 mm) were drilled on the plates (five wells per plate) by using a sterile sharp-edged narrow metal tube, single-use pipette tip, and vacuum suction. An alternative method used a swab to spread the inoculum. Samples (4 μl and 10 μl) of the peptide solution in 0.9% NaCl (at concentrations of 1 μg/ml and 0.1 μg/ml) were then pipetted to the wells and the sample fluids were allowed to absorb. Controls included 0.9% NaCl solution without the compound to be tested. The plates were then incubated for 18 h at 37° C. whereafter the diameters of growth inhibition zones around each well were measured; the diameter of the well itself was not reduced. Finally, the diameters were converted to surface areas of growth inhibition (in square mm).
(§2) The susceptibility of eleven Gram-negative bacterial strains (nine different species) to NAB734 and polymyxin B was compared by using the susceptibility determination method described in Example 2. The strains included those belonging to the species of Serratia marcescens and Proteus mirabilis, both species generally known to be resistant to polymyxin. Furthermore, the susceptibility determination was also performed by using the Gram-positive bacterium, Staphylococcus aureus, also generally known to be polymyxin-resistant. Ten of the strains originated from ATCC (American Type Culture Collection, Manassas, Va., U.S.A.), and one from CCUG (Culture Collection of University of Gothenburg, Sweden). The source of E. coli IH3080 has been described in Example 2. Polymyxin B sulfate was from Sigma-Aldrich (St. Louis, Mo., USA).

[4] = tested on: K. oxytoca ATCC13182; assay: Growth inhibition around wells on LB agar plates; assay type: cell-based, Klebsiella oxytoca; conditions: 4 μg
Method: as §1, §2

[5] = tested on: C. freundii ATCC8090; assay: Growth inhibition around wells on LB agar plates; assay type: cell-based, Citrobacter freundii
Method: as §1, §2

[6] = tested on: E. coli ATCC25922; assay: Growth inhibition around wells on LB agar plates; assay type: cell-based, Escherichia coli
Method: as §1, §2

[7] = tested on: E. cloacae ATCC23355; assay: Growth inhibition around wells on LB agar plates; assay type: cell-based, Enterobacter cloacae; conditions: 4 μg
Method: as §1, §2

[8] = tested on: E. cloacae ATCC23355; assay: E-test MIC with or without NAB7061 (4 μg/ml), Mueller-Hinton agar; assay type: cell-based, Enterobacter cloacae
Procedure, shortened: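 MICs were read from antibiotic gradient strips applied according to the manufacturer's instructions.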

Question: How did the “MIC, range for Pseudomonas aeruginosa” value [1] turn out when `CCCCCCCCCC(=O)N[C@H](C(=O)N[C@H](CO)C(=O)N[C@H]1CCNC(=O)[C@H]([C@@H](C)O)NC(=O)[C@H](CCN)NC(=O)[C@H](CCN)NC(=O)[C@H](CC(C)C)NC(=O)[C@@H](Cc2ccccc2)NC(=O)[C@H](CCN)NC1=O)[C@@H](C)O` [NAB 740, DA-Thr-DSer-cy[Dab-Dab-DPhe-Leu-Dab-Dab-Thr-]] (Decanoyl-T[dS][Dab][Dab][dF]L[Dab][Dab]T; lactam 3-C) was run?
Answer: 4 to 8 µg/mL

Question: What does the source list for `CCCCCCCC(=O)N[C@H](C(=O)N[C@H](CO)C(=O)N[C@H]1CCNC(=O)[C@H]([C@@H](C)O)NC(=O)[C@H](CCN)NC(=O)[C@H](CCN)NC(=O)[C@H](CC(C)C)NC(=O)[C@@H](Cc2ccccc2)NC(=O)[C@H](CCN)NC1=O)[C@@H](C)O` [NAB 739, OA-Thr-DSer-cy[Dab-Dab-DPhe-Leu-Dab-Dab-Thr-]] (Octanoyl-T[dS][Dab][Dab][dF]L[Dab][Dab]T; lactam 3-C)?
Answer: % survival at 37 degrees centigrade ([2]; 1 μg/ml): 21%; % survival at 37 degrees centigrade ([2]; 2 μg/ml): 2%; % survival at 37 degrees centigrade ([2]; 4 μg/ml): 0%

Question: Polymyxin B [reference compound] was tested. Which “growth inhibition around a well” value ([3]; 4 μg) did it give?
Answer: 0 square millimeters

Question: What about the “growth inhibition around a well” value ([3]; 10 μg) of the same molecule?
Answer: 0 square millimeters

Question: And the “growth inhibition around a well” value [4]?
Answer: 79 square millimeters

Question: What about the “growth inhibition around a well” value ([5]; 4 μg) of the same molecule?
Answer: 95 square millimeters

Question: And the “growth inhibition around a well” value ([5]; 10 μg)?
Answer: 154 square millimeters

Question: And the “growth inhibition around a well” value ([6]; 4 μg)?
Answer: 95 square millimeters

Question: What about the “growth inhibition around a well” value ([6]; 10 μg) of the same molecule?
Answer: 133 square millimeters

Question: And the “growth inhibition around a well” value [7]?
Answer: 95 square millimeters

Question: And the “Sensitization factor to antibiotic (MIC without / with 4 μg/ml of NAB 7061)” value [8]?
Answer: 4
